This data set relates to Rattus norvegicus. The settings on record: oral.
Setting [1] is: short-term, duration: 28 days, gavage, F, Sprague-Dawley, Deaths + Clinical Observation: Locomotor activity decrease, Salivation + Body Weight Changes: decrease, Gain decrease + Food Consumption: ….
Setting [2] is: short-term, duration: 28 days, gavage, M, Sprague-Dawley, Deaths + Clinical Observation: Locomotor activity decrease, Salivation + Body Weight Changes: decrease, Gain decrease + Food Consumption: ….
[3] abbreviates: subchronic, gavage, M, Sprague-Dawley, Water Consumption: increase + Urinalysis: Osmotic pressure decrease, Volume increase, R.
[4] abbreviates: short-term, duration: 28 days, gavage, M, Sprague-Dawley, Clinical Observation: Locomotor activity decrease, SalivationRespiratory rate decrease, Incomplete eyelid opening + Body Weight Changes: ….
[5] abbreviates: short-term, duration: 28 days, gavage, F, Sprague-Dawley, Clinical Observation: Salivation + Hematology: Hgb decrease, Hct decrease + Blood Chemistry: Bil increase, Bil increase(trend)gamma-GTP ….
The mark [6] stands for this setting: short-term, duration: 28 days, gavage, M, Sprague-Dawley, Clinical Observation: Salivation + Hematology: Hgb decrease, Hct decrease + Blood Chemistry: Bil increase, Bil increase(trend)gamma-GTP ….
[7] abbreviates: short-term, duration: 28 days, gavage, F, Sprague-Dawley, Deaths + Clinical Observation: Locomotor activity decrease, Abnormal respiratory sound Deep respiration Pale skin Hypothermia Ptosis ….
[8] abbreviates: short-term, duration: 28 days, gavage, M, Sprague-Dawley, Deaths + Clinical Observation: Locomotor activity decrease, Abnormal respiratory sound Deep respiration Pale skin Hypothermia Ptosis ….
Setting [9] is: short-term, duration: 28 days, gavage, M/F, Sprague-Dawley, Clinical Observation: Sedation Paleness + Functional Observational Battery: Forelimb grip strength decrease, Motor activity decrease, Motor ….

Here are results for 33 compounds from EPA's ToxValDB 9.5.

Each structure is given as a SMILES string.

As for `C=CC(F)(F)C(F)(F)C(F)(F)C(F)(F)C(F)(F)C(F)(F)C(F)(F)C(F)(F)F` [1H,1H,2H-Perfluoro-1-decene], the NOEL (short-term, duration: 28 days, gavage, M/F, Hematology: Trend of anemia + Blood Chemistry: GOT increase, GPT increase, T-CHO decrease + Absolute Organ Weight: Liver increase + …) amounted to 8 mg/kg-day.
For the compound `COC(=O)C1=C(C#N)NC(C)=C(C(=O)OC(C)C)C1c1cccc([N+](=O)[O-])c1` (stereo not drawn) [Nilvadipine], the NOEL (subchronic, gavage, M/F, Sprague-Dawley, Relative Organ Weight: Heart increase Liver increase Ovary increase + Histopathology: Adrenal-Lipoid increase, of zona glomerulosa) is less than 9.6 mg/kg-day.
Turning to `CCCCC(CC)COP(=O)(O)CC(CC)CCCC` (stereo not drawn) [Phosphonic acid, P-(2-ethylhexyl)-, mono(2-ethylhexyl) ester], where the note is “subchronic, gavage, M, Sprague-Dawley, Hematology: Hgb decrease, Hct decrease + Blood Chemistry: Alb increase, A/G increase + Absolute Organ Weight: Liver increase + Relative …”, the NOEL was 30 mg/kg-day.
Regarding `CCCC(C)(COC(N)=O)COC(=O)NC(C)C` (stereo not drawn) [Carisoprodol], the NOEL runs as follows: (subchronic, gavage, M/F, Fischer 344, Deaths + Clinical Observation: Lethargy Ataxia + Absolute Organ Weight: Right kidney increase, Liver increase + Relative Organ Weight: Right…) less than 100 mg/kg-day; (subchronic, gavage, M/F, Fischer 344, Deaths + Clinical Observation: Lethargy Diarrhea Rough hair coat Prostration Urine stain in the vaginal area Ataxia + Body Weight Changes: …) less than 100 mg/kg-day.
As to `CCc1ccccc1N` [2-Ethylaniline], the NOEL (subchronic, duration: 42 days, gavage, M, CD(SD), Hematology: RBC decrease, HGB decrease, MCV increase, MCH increase, MCHC decrease, RET increase + Blood Chemistry: Alb increase A/G …) is 3 mg/kg-day.
Regarding `NS(=O)(=O)c1ccccc1` [Benzenesulfonamide], under setting [1], the lowest observed adverse effect level (LOAEL) came to 30 mg/kg-day, the LOEL stood at 30 mg/kg-day, the NOAEL was 6 mg/kg-day and the NOEL amounted to 6 mg/kg-day. Moreover, under setting [2], the LOAEL came out at 30 mg/kg-day, the LOEL stood at 30 mg/kg-day, the NOAEL was 6 mg/kg-day and the NOEL turned out to be 6 mg/kg-day.
With `CN1C(=O)C(O)N=C(c2ccccc2Cl)c2cc(Cl)ccc21` (stereo not drawn) [Lormetazepam], the NOEL (subchronic, duration: 35 days, gavage, F, Sprague-Dawley, Clinical Observation: Locomotor activity decrease, Drowsiness Aggression + Body Weight Changes: Body weight gain increase + Food Consumption…) worked out at 4 mg/kg-day and the NOEL (subchronic, duration: 35 days, gavage, M, Sprague-Dawley, Clinical Observation: Locomotor activity decrease, Drowsiness Aggression + Body Weight Changes: Body weight gain increase + Food Consumption…) is 20 mg/kg-day.
On to `BrCCCCCCCCCCBr` [1,10-Dibromodecane-], for which, under “short-term, duration: 28 days, gavage, M/F, Sprague-Dawley, Clinical Observation: Salivation + Water Consumption: increase + Blood Chemistry: BUN increase, Cl increase + Absolute Organ Weight: Liver …”, the NOEL is less than 8 mg/kg-day.
Consider `Fc1ccc(Br)cc1F` [4-Bromo-1,2-difluorobenzene], for which the NOEL (short-term, duration: 28 days, gavage, M/F, Deaths + Clinical Observation: Locomotor activity decrease, Salivation Paleness of Auricle + Body Weight Changes: Gain decrease + …) was 20 mg/kg-day.
With `NCCS(=O)(=O)O` [l-Taurine], under setting [3], the LOEL turned out to be 1000 mg/kg-day, the NOAEL came out at 1000 mg/kg-day and the NOEL stood at 300 mg/kg-day.
For `CN(C)C(=O)Nc1ccc(Cl)cc1` [Monuron], under setting [4], the NOAEL is less than 40 mg/kg-day and the NOEL was less than 40 mg/kg-day.
Take `CCC[CH2][Sn]([CH2]CCC)([CH2]CCC)[CH2]CCC` [Tetrabutyltin]: under “subchronic, duration: 33 days, diet, M, Wistar, Body Weight Changes: Weight gain decrease + Absolute Organ Weight: Thymus decrease + Relative Organ Weight: Thymus decrease, Spleen decrease…”, the NOAEL amounted to 9.6 mg/kg-day.
In the case of `CCC1CCCCC1` [Ethylcyclohexane], under setting [5], the LOEL is 200 mg/kg-day and the NOEL worked out at 40 mg/kg-day. Further, under setting [6], the LOEL was 200 mg/kg-day and the NOEL was 40 mg/kg-day.
Consider `C=CCOC(=O)c1ccccc1-c1ccccc1C(=O)OCC=C`, for which, where the note is “short-term, duration: 28 days, gavage, M/F, Clinical Observation: Salivation + Hematology: APTT increase, PT increase + Blood Chemistry: GOT increase, GPT increase, gamma-GTP increase…”, the NOEL was found to be 6 mg/kg-day.
With `COc1ccccc1OCCNCC(O)COc1cccc2[nH]c3ccccc3c12` (stereo not drawn) [Carvedilol], the NOEL (chronic, duration: 91 days, gavage, M/F, Wistar, Deaths + Clinical Observation: Salivation Lacrimation Ptosis Locomotor activity decrease + Body Weight Changes: Body weight gain decrease + …) amounted to 30 mg/kg-day.
For `O=C(c1ccc(Cl)cc1)c1ccccc1Cl` [2,4'-Dichlorobenzophenone], the NOEL (subchronic, gavage, M, Sprague-Dawley, Clinical Observation: Salivation (transient) + Functional Observational Battery: Salivation + Body Weight Changes: Gain decrease(trend) + …) came out at 40 mg/kg-day.
`CCCCCCCCCCCCCCCCCCCCCC[N+](C)(C)C.[Cl-]` [Docosyltrimethylammonium chloride]: the NOEL (subchronic, gavage, M, Sprague-Dawley, Clinical Observation: Salivation Perinasal and perioral smudge Soft stool and diarrhea + Body Weight Changes: decrease, R + Food …) was less than 5 mg/kg-day.
Regarding `O=C1c2ccccc2C(=O)N1SC(F)(Cl)Cl` [Fluorofolpet], the NOEL (short-term, duration: 28 days, gavage, M/F, Wistar, Deaths + Clinical Observation: Nasal noise Diarrhea + Body Weight Changes: Weight gain decrease + Food Consumption: decrease + Water …) is less than 20 mg/kg-day.
Take `Nc1nc(=S)[nH][nH]1` [3-Amino-1,2,4-triazole-5-thiol]: for the setting “subchronic, gavage, M/F, Sprague-Dawley, Deaths + Clinical Observation: White turbid urine SalivationSoft stool + Body Weight Changes: decrease + Food Consumption: decrease + …”, the NOEL is 10 mg/kg-day.
As to `CCCCC(CC)(CO)CO` [2-Butyl-2-ethyl-1,3-propanediol], the NOAEL (subchronic, gavage, M, Sprague-Dawley, Clinical Observation: Staggering gait + Water Consumption: increase + Urinalysis: pH decrease + Hematology: LYMPH increase, NEUT decrease + …) was found to be 20 mg/kg-day.
In the case of `S=c1[nH]c2ccccc2[nH]1` [2-Mercaptobenzimidazole], the NOEL (short-term, duration: 28 days, gavage, M/F, Wistar, Body Weight Changes: decrease + Food Consumption: decrease + Hematology: Hct decrease, Plt decrease, WBC decrease, APTT increase + Blood …) is less than 2 mg/kg-day.
For the compound `c1ccc(Nc2ccc3ccccc3c2)cc1` [N-Phenyl-2-naphthylamine], the NOEL (subchronic, duration: 13 weeks, diet, M/F, Fischer 344, Deaths + Clinical Observation: Rough coats + Body Weight Changes: decrease + Absolute Organ Weight: Liver increase + Relative Organ Weight…) is 240 mg/kg-day.
`O=C(O)[C@H]1CCCC[C@H]1C(=O)O` [cis-1,2-Cyclohexanedicarboxylic acid]: under “subchronic, gavage, M, Sprague-Dawley, Deaths + Clinical Observation: Dead (4/12)Soiled perigenitalia of urine + Hematology: WBC increase, Neutrophils(%) increase, Lymphocytes(%) …”, the NOEL was determined as 300 mg/kg-day.
For `O=[N+]([O-])C(Br)(CO)CO` [Bronopol], the LOEL amounted to 30 mg/kg-day under setting [7] and 90 mg/kg-day under setting [8]. Besides, the NOEL is, setting by setting: under setting [7], 10 mg/kg-day; under setting [8], 30 mg/kg-day.
Regarding `c1cc(OCC2CO2)cc(OCC2CO2)c1` (stereo not drawn) [Diglycidyl resorcinol ether], for the setting “subchronic, duration: 13 weeks, gavage, M/F, Fischer 344, Deaths + Body Weight Changes: decrease + Histopathology: Stomach/forestomach-Inflammation Stomach/forestomach-Basal cell hyperplasia Stomach…”, the NOEL is less than 12.5 mg/kg-day.
As for `C=CS(=O)(=O)CCNC(=O)c1cccc(Nc2nc(F)nc(Nc3cc(S(=O)(=O)[O-])cc4cc(S(=O)(=O)[O-])c(N=Nc5ccc6c(S(=O)(=O)[O-])cccc6c5S(=O)(=O)[O-])c(O)c34)n2)c1.[Na+].[Na+].[Na+].[Na+]`, the NOEL (short-term, duration: 28 days, gavage, M/F, Urinalysis: Occult blood increase, Bil increase + Hematology: RET increase, WBC increase, LYMPH increase + Blood Chemistry: BUN increase, T-…) is 50 mg/kg-day.
Take `O=C(CO)[C@@H](O)[C@H](O)[C@H](O)CO[C@H]1O[C@H](CO)[C@@H](O)[C@H](O)[C@H]1O` [6-O-Hexopyranosylhex-2-ulofuranose]: the NOEL (subchronic, duration: 13 weeks, diet, Wistar) is 10%.
Regarding `CC(C)CC(C)(C#N)N=NC(C)(C#N)CC(C)C` (stereo not drawn) [2,2'-Azobis[2,4-dimethylvaleronitrile]], the NOEL (subchronic, gavage, M, Sprague-Dawley, Clinical Observation: Salivation + Blood Chemistry: gamma- GTP increase, TG decrease + Absolute Organ Weight: Liver increase, R + Relative …) worked out at 10 mg/kg-day.
On to `CCC(C)(C)OC` [tert-Amyl methyl ether], for which, for the setting “short-term, duration: 29 days, gavage, M/F, Sprague-Dawley, Deaths + Clinical Observation: Rales Anogenital staining + Body Weight Changes: Mean body weight decrease + Food Consumption: decrease + …”, the NOAEL was found to be 125 mg/kg-day.
Turning to `CCOC(N)=O` [Urethane], the LOAEL under setting [9] worked out at 100 mg/kg-day. Further, under setting [9], the LOEL stood at 100 mg/kg-day. Also, the no-observed-adverse-effect level (NOAEL) under setting [9] was 20 mg/kg-day. The NOEL runs as follows: under setting [9], 20 mg/kg-day; (subchronic, drinking water, F, Fischer 344, Deaths + Body Weight Changes: decrease + Water Consumption: decrease + Hematology: WBC decrease, Lympho decrease + Blood Chemistry: BUN …) 10 mg/kg-day; (subchronic, drinking water, F, Fischer 344, Deaths + Clinical Observation: Thinness, abnormal posture, and ruffled fur + Body Weight Changes: decrease + Water Consumption: decrease + …) 11 mg/kg-day; (subchronic, drinking water, M/F, Fischer 344, Deaths + Body Weight Changes: decrease + Water Consumption: decrease + Hematology: WBC decrease, Lympho decrease + Blood Chemistry: BUN …) less than 16.7 mg/kg-day; (subchronic, drinking water, M/F, Fischer 344, Deaths + Clinical Observation: Thinness, abnormal posture, and ruffled fur + Body Weight Changes: decrease + Water Consumption: decrease + …) less than 16.7 mg/kg-day.
`NNC(=O)CCCCC(=O)NN` [Hexanedihydrazide]: for the setting “subchronic, gavage, M, Sprague-Dawley, Clinical Observation: Emaciation R Incontinence of urine R Diarrhea R Loose stool R + Relative Organ Weight: Thymus increase, Kidney …”, the NOEL was 85 mg/kg-day.
As to `COC(=O)CCCC(=O)OC` [Dimethyl glutarate], the NOAEL (subchronic, duration: 42 days, gavage, M, CD(SD), Urinalysis: pH decrease(trend) + Histopathology: Stomach-Hyperplasia, squamous, limiting ledge) is 300 mg/kg-day.
For the compound `C=C[Si](OCCOC)(OCCOC)OCCOC` [Tris(2-methoxyethoxy)vinylsilane], the no observed adverse effect level (NOAEL) (short-term, duration: 28 days, gavage, M/F, CD(SD), Body Weight Changes: decrease + Food Consumption: decrease + Hematology: RBC decrease, HGB decrease, HCT decrease, MCHC decrease, RET …) turned out to be 25 mg/kg-day.
